Data reported in patent publication US9133241B2, “Peptide compositions” (TARIX PHARMACEUTICALS LTD., priority 2013, dated 2015).

Assays:
[1] = tested on: human umbilical vein endothelial cells (HUVEC); assay: BDNF production in HUVEC (BDNF Emax immunoassay of cell medium); type: cell-based; settings: for lowest dose stimulating significant BDNF expression: serum-free medium, 24 hours stimulation
Protocol: (§1) Prior to stimulation, cells were washed twice with sterile PBS and then provided with the respective serum free cell medium. Cells were incubated in the serum-free medium for one hour and afterwards stimulated for 24 hours. For the dose response measurement the peptides were used in a range from 10^−14M to 10^−6M. For all other experiments, a 10^−7M concentration of the peptides was used, whereas isoproterenol and forskolin were used in a 10^−6M concentration. To maintain the concentration of the substances over a period of 24 hours they were added again into the medium after 12 hours. After stimulation, the concentration of BDNF was determined in the cell medium. The samples were either used directly or stored at −80° C.
(§2) For the determination of the concentration of BDNF the BDNF Emax® immunoassay system from Promega was used. At first, 96-well plates were coated with anti-BDNF overnight at 4° C. The next day, the plates were washed with TBST and incubated with blocking buffer for one hour at room temperature. Afterwards, the plate was washed again with TBST, and 100 μl of sample were applied per well. The plate was incubated on a shaker (˜400 rpm) for two hours at room temperature and later on washed five times with TBST. To each well 100 μl pAb anti-human BDNF were added, and the plate again incubated under continuous shaking for two hours at room temperature. Thereafter, the plate was washed five times with TBST, each well applied with 100 μl anti-IgY-HRP conjugate, and incubated at room temperature with shaking for one hour. Then, the plate was washed five times with TBST and incubated for 10 min at room temperature on a shaker with TMB One Solution. The reaction was stopped with 1 M hydrochloric acid and the absorbance was measured immediately at 450 nm. The BDNF concentration was determined from a standard curve.

[2] = tested on: human dermal microvascual endothelial cells (HDMEC); assay: BDNF production in HDMEC (BDNF Emax immunoassay of cell medium); type: cell-based; settings: for lowest dose stimulating BDNF expression: serum-free medium, 24 hours stimulation
Protocol: as §1, §2

[3] = tested on: transient middle cerebral artery occlusion (tMCAO) rat model of stroke; assay: Cerebral blood flow and vessel diameter (laser Doppler), tMCAO rat model of stroke; type: in vivo; settings: day 50; 50 μg/kg SC
Protocol: (§3) For the purposes of this Example, Transient middle cerebral artery occlusion (tMCAO) procedure Day is defined as “Day 1” in this study. On the day of surgery anesthesia were induced with 4% isoflurane in a mixture of 70% N2O and 30% O2 and maintained with 1.5-2% isoflurane.
(§4) The tMCAO procedures were performed according to the method described R. Schmid-Elsaesser et al., A critical reevaluation of the intraluminal thread model of focal cerebral ischemia: evidence of inadvertent premature reperfusion and subarachnoid hemorrhage in rats by laser-doppler flowmetry, Stroke, 1998, 29(10): 2162-2170. Briefly, the right CCA (Common Carotid Artery) was exposed through a midline neck incision and carefully dissected free from surrounding nerves and fascia—from its bifurcation to the base of the skull. The occipital artery branches of the ECA (External Carotid Artery) were then isolated, and these branches were dissected and coagulated. The ECA was dissected further distally and coagulated along with the terminal lingual and maxillary artery branches, which was then divided. The ICA (Internal Carotid Artery) was isolated and carefully separated from the adjacent vagus nerve, and the pterygopalatine artery was ligated close to its origin with a 5-0 nylon suture (SMI, Belgium). Next, a 4-0 silk suture was tied loosely around the mobilized ECA stump, and a 4 cm length of 4-0 monofilament nylon suture (the tip of the suture was blunted by using a flame, and the suture was coated with polylysine, prior to insertion) was inserted through the proximal ECA into the ICA and thence into the circle of Willis, effectively occluding the MCA. The surgical wound was closed and the animals were returned to their cages to recover from anesthesia. One hour and a half after occlusion rats were re-anesthetized, the monofilament was withdrawn to allow reperfusion, the surgical wound was closed and rats were returned to their cages.
(§5) Animals were subjected to a modified Modified Neurological Rating Scale (mNRS) at 24 hours post reperfusion. Only animals with an overall score of ≧10 were included in this study. Animals were allocated into the test groups, according to the mNRS results on day 2, in order to have similar distribution of rats performance between groups. Starting on day 2, 24 hours post-surgery, each animal was administered one of 50 μg/kg of either TXA301 (SEQ ID NO: 20) or TXA302 (SEQ ID NO: 18) or […]; via subcutaneous (SC) administration.
Evaluation of blood flow in the cerebral cortex and vessel constriction was carried out using a Flow-R Laser Doppler system, in which intracranial blood flow and vessels diameter (constriction/dilation) was monitored. The Doppler procedure was carried out on Day 50 after the stroke and was performed while the animals were under isoflurane anesthesia.

[4] = tested on: transient middle cerebral artery occlusion (tMCAO) rat model of stroke; assay: Modified Neurological Rating Scale (mNRS), tMCAO rat model of stroke; type: in vivo; settings: 50 μg/kg SC once per day, tMCAO rats
Protocol: as §3
(§6) The tMCAO procedures were performed according to the method described R. Schmid-Elsaesser et al., A critical reevaluation of the intraluminal thread model of focal cerebral ischemia: evidence of inadvertent premature reperfusion and subarachnoid hemorrhage in rats by laser-doppler flowmetry, Stroke, 1998, 29(10): 2162-2170. Briefly, the right CCA (Common Carotid Artery) was exposed through a midline neck incision and carefully dissected free from surrounding nerves and fascia—from its bifurcation to the base of the skull. The occipital artery branches of the ECA (External Carotid Artery) were then isolated, and these branches were dissected and coagulated. The ECA was dissected further distally and coagulated along with the terminal lingual and maxillary artery branches, which was then divided. The ICA (Internal Carotid Artery) was isolated and carefully separated from the adjacent vagus nerve, and the pterygopalatine artery was ligated close to its origin with a 5-0 nylon suture (SMI, Belgium). […]

[5] = tested on: transient middle cerebral artery occlusion (tMCAO) rat model of stroke; assay: Body swing test, tMCAO rat model of stroke; type: in vivo; settings: 50 μg/kg SC once per day, tMCAO rats
Protocol: as §3
as §6, with “coagulated.” for “coagulated. The ECA was dissected further distally and coagulated along with the terminal lingual and maxillary artery branches, which was then divided. The ICA (Internal Carotid Artery) was isolated and carefully separated from the adjacent vagus nerve, and the pterygopalatine artery was ligated close to its origin with a 5-0 nylon suture (SMI, Belgium).”
The rat was held approximately one inch from the base of its tail. […] A swing was recorded whenever the rat moved its head out of the vertical axis to either side. Before attempting another swing, the rat had to return to the vertical position for the next swing to be counted. Twenty (20) total swings were counted. […] Body swing scores are expressed as a percentage of […] over total swings.

[6] = tested on: transient middle cerebral artery occlusion (tMCAO) rat model of stroke; assay: Forelimb placement test, tMCAO rat model of stroke; type: in vivo; settings: 50 μg/kg SC once per day; for forelimb placement: first day of statistically significant improvement vs vehicle: tMCAO rats; for forelimb placement score improvement vs vehicle control / forelimb placement score improvement vs vehicle control, percent: by day 50
Protocol: as §3, §4, §5
The limb placing tests were divided into both forelimb and hindlimb tests. For the forelimb-placing test, the examiner held the rat close to a tabletop and scored the rat's ability to place the forelimb on the tabletop in response to whisker, visual, tactile, or proprioceptive stimulation. Similarly, for the hindlimb placing test, the examiner assessed the rat's ability to place the hindlimb on the tabletop in response to tactile and proprioceptive stimulation. Separate sub-scores were obtained for each mode of sensory input and added to give total scores (for the forelimb placing test: 0=normal, 12=maximally impaired; for the hindlimb placing test: 0=normal; 6=maximally impaired). Scores were given in half-point increments as follows: whisker placing (0-2), visual placing-forward (0-2), -sideways (0-2); tactile placing-dorsal (0-2), -lateral (0-2); proprioceptive placing (0-2); for a total of 0-12.

[7] = tested on: transient middle cerebral artery occlusion (tMCAO) rat model of stroke; assay: Stepping test, tMCAO rat model of stroke; type: in vivo; settings: 50 μg/kg SC once per day, tMCAO rats
Protocol: as §3
as §6, with “coagulated.” for “coagulated. The ECA was dissected further distally and coagulated along with the terminal lingual and maxillary artery branches, which was then divided. The ICA (Internal Carotid Artery) was isolated and carefully separated from the adjacent vagus nerve, and the pterygopalatine artery was ligated close to its origin with a 5-0 nylon suture (SMI, Belgium).”
Animals were tested for forelimb akinesia in a stepping test. The animal was held with its hind limbs fixed with one hand and the forelimb not monitored with the other, while the unrestrained fore-paw touches a table. The number of adjusting steps were counted while the animal was moved sideways along the table surface (85 cm in approximately five seconds), in the forehand & backhand direction for both forelimbs.

HUVEC cells = assay: cAMP production in HUVEC (cAMP enzyme immunoassay of cell lysate); type: cell-based, human; settings: 15 minutes stimulation
Protocol: Prior to stimulation with Ala^1-Arg^2-Val^3-Ser^4-Ile^5-His^6-Cys^7 (SEQ ID NO: 18), HUVEC cells were washed twice with PBS and then incubated for 1 hour in serum-free medium. In this Example, in order to generate a dose response curve, the peptide concentration ranged from 1×10^−13-1×10^−6 M. After 15 minutes stimulation, the medium containing peptide was removed and the cells were lysed (0.1M HCl, 0.1% Triton X-100). The clear lysate was collected, and 25 μl were used for determining the protein concentration (Pierce BCA Protein Assay Kit, Thermo Scientific, Rockford, USA) and the remaining fraction stored at −80° C. for later analysis.
cAMP concentration in cell lysates was determined using cAMP Enzyme Immunoassay Kit, Direct from Sigma-Aldrich (St. Louis, Mo., USA). Briefly, wells of 96-well plate (Goat Anti-Rabbit IgG pre-coated) were neutralized with 50 μl of Neutralizing Reagent. Next, 100 μl of acetylated cyclic AMP standard or cell lysate was added, followed by 50 μl of blue cAMP-Alkaline Phosphatase Conjugate and 50 μl of yellow EIA Rabbit Anti-cAMP antibody. The plate was then incubated on a shaker (˜500 rpm) for two hours at room temperature. […] The enzymatic reaction was stopped by adding 50 μl of Stop Solution, and the absorbance at 405 nm was measured immediately. The cAMP concentration was determined from non-linear standard curve using GraphPad Prism 5.0 software. […]

Substance	lowest dose stimulating significant BDNF expression [1] [nM]	lowest dose stimulating BDNF expression [2] [nM]	BDNF expression at doses 100,000 times higher than 1×10^−11 ([1]; compared with 1×10^−11 M)	blood flow ratio vs vehicle [3]	vessel diameter vs vehicle [3]	mNRS: first day of significant increase in performance vs vehicle [4] [days]	body swing test: first day of statistically significant improvement vs vehicle [5] [days]	BDNF expression at doses 100,000 times higher than 1×10^−11 ([2]; compared with 1×10^−11 M)	forelimb placement: first day of statistically significant improvement vs vehicle [6] [days]	forelimb placement score improvement vs vehicle control [6]	forelimb placement score improvement vs vehicle control, percent [6] [%]	stepping test: first day of statistically significant effect vs vehicle [7] [days]	blood flow compared to vehicle controls and to rats receiving TXA301 [3]	vessel diameter compared to vehicle controls and to rats receiving TXA301 [3]	dose of observed maximum cAMP (HUVEC cells)	lowest dose giving significant increase in cAMP (HUVEC cells) [pM]
Asp^1-Arg^2-Val^3-Tyr^4-Ile^5-His^6-Pro^7 (DRVYIHP) [Ang (1-7), naturally-occurring Ang-(1-7), reference compound]	10	10														
TXA301: angiotensin (1-7) peptide coded TXA301 (SEQ ID NO: 20); sequence not printed in the text (DRVSIHC)	0.01	0.01	statistically similar levels of expression	statistically significant improvement	statistically significant improvement	15	22	statistically similar levels of expression	22	4 points	~44	15				
Ala^1-Arg^2-Val^3-Ser^4-Ile^5-His^6-Cys^7 (ARVSIHC) [TXA302]				statistically significant improvement	statistically significant improvement	15	15		15	more than 7 points	~78	15	markedly improved blood flow	increased vessel diameter	approximately 1×10^−9 M	10
